Measurements reported in patent US10208066B2, “Imidazopyridazine compounds and their use” (HUTCHISON MEDIPHARMA LIMITED, priority 2014, dated 2019).
Read-outs that look alike come from different tables or passages of the source.

Key:
Assay in all cases: Transcreener KINASE Assay, fluorescent determination of PI3K enzyme activity;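 for PI3K-β IH % (inhibition rate): recombinant PI3K enzyme reaction, 80 min at room temperature, ADP formed detected by far-red competitive fluorescence polarization immunoassay, inhibition relative to ADP in 2% DMSO control wells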;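 for PI3K-γ IH % (inhibition rate): ADP produced by p110γ kinase reaction, 80 min at room temperature, detected by far-red fluorescence polarization immunoassay, inhibition relative to 2% DMSO control wells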;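 for PI3K-δ IH % (inhibition rate): ADP formed by the kinase detected via far-red competitive fluorescence polarization immunoassay after 80 min room-temperature reaction, inhibition relative to 2% DMSO wells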
Format in all cases: biochemical
PI3K-β = PI3K-β (Homo sapiens, UniProt P42338); conditions: for PI3K-β IH % (inhibition rate) / inhibition at 1 µM: at 1 μM; for inhibition at 1 µM: read-out: PI3K-β IH % (inhibition rate);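 for all read-outs here: recombinant PI3K enzyme reaction, 80 min at room temperature, ADP formed detected by far-red competitive fluorescence polarization immunoassay, inhibition relative to ADP in 2% DMSO control wells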
Method: (§1) It is a universal, homogenous, high throughput screening (HTS) technology using a far-red, competitive fluorescence polarization immunoassay based on the detection of ADP to monitor the activity of enzymes that catalyze group transfer reactions. […] The reaction mixture was added into desired wells of a 96-well plate. The plate was sealed and incubated for 80 min at room temperature. • 2) Next, 25 uL ADP detection mix was added into each well. The plate was sealed again and incubated for 60 min at room temperature. Then fluorescence polarization was measured by Tecan Infinite F500 Reader.
(§2) Data was analyzed and IC50 values were generated using the add-in software for Microsoft Excel, Xlfit™ (version 5.3).
(§3) Inhibition rates were calculated as follow: IH %=(ADP amount under 2% DMSO well−ADP amount under test compound well)/ADP amount under 2% DMSO well×100%.

PI3K-δ (p110δ/p85α) = PI3K-δ (p110δ/p85α) (Homo sapiens (Human), UniProt O00329); conditions: for inhibition at 1 µM: read-out: PI3K-δ IH % (inhibition rate);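 for all read-outs here: ADP formed by the kinase detected via far-red competitive fluorescence polarization immunoassay after 80 min room-temperature reaction, inhibition relative to 2% DMSO wells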
Method: as §1, §2, §3

PI3K-γ (p110γ) = PI3K-γ (p110γ) (Homo sapiens (Human), UniProt P48736); conditions: for inhibition at 1 µM: read-out: PI3K-γ IH % (inhibition rate);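 for all read-outs here: ADP produced by p110γ kinase reaction, 80 min at room temperature, detected by far-red fluorescence polarization immunoassay, inhibition relative to 2% DMSO control wells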
PI3K-γ (p110γ), sequence (P48736 whole entry, species assumed): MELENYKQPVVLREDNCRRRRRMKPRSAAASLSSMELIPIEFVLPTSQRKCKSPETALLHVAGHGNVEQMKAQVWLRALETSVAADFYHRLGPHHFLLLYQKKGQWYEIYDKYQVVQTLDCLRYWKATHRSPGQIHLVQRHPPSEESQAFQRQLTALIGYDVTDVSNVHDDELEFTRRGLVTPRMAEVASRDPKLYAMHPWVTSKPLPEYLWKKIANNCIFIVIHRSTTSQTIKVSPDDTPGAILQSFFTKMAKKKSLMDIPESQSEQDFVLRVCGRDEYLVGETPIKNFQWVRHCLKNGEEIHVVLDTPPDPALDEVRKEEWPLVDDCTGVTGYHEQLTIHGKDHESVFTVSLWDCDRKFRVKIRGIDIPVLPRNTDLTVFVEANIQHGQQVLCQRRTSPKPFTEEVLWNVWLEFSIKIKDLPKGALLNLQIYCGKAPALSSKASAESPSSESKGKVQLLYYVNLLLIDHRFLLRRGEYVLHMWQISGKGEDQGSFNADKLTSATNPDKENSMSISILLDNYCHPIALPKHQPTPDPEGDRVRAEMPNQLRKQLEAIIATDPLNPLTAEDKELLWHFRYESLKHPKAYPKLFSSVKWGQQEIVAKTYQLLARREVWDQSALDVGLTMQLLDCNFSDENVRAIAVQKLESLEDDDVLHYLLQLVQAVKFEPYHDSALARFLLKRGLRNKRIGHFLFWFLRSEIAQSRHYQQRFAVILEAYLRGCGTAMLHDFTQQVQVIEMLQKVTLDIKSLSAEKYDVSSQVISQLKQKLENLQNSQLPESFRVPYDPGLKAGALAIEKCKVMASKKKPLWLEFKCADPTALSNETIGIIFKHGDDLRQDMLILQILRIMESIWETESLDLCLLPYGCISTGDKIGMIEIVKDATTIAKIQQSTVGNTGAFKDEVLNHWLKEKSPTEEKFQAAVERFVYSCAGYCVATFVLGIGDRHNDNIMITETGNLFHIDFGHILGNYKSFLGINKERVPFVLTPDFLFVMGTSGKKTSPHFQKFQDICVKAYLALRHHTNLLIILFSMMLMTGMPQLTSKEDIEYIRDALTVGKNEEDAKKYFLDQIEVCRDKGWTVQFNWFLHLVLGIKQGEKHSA
Method: as §1, §2, §3

PI3K-β, sequence (P42338 whole entry, looked up): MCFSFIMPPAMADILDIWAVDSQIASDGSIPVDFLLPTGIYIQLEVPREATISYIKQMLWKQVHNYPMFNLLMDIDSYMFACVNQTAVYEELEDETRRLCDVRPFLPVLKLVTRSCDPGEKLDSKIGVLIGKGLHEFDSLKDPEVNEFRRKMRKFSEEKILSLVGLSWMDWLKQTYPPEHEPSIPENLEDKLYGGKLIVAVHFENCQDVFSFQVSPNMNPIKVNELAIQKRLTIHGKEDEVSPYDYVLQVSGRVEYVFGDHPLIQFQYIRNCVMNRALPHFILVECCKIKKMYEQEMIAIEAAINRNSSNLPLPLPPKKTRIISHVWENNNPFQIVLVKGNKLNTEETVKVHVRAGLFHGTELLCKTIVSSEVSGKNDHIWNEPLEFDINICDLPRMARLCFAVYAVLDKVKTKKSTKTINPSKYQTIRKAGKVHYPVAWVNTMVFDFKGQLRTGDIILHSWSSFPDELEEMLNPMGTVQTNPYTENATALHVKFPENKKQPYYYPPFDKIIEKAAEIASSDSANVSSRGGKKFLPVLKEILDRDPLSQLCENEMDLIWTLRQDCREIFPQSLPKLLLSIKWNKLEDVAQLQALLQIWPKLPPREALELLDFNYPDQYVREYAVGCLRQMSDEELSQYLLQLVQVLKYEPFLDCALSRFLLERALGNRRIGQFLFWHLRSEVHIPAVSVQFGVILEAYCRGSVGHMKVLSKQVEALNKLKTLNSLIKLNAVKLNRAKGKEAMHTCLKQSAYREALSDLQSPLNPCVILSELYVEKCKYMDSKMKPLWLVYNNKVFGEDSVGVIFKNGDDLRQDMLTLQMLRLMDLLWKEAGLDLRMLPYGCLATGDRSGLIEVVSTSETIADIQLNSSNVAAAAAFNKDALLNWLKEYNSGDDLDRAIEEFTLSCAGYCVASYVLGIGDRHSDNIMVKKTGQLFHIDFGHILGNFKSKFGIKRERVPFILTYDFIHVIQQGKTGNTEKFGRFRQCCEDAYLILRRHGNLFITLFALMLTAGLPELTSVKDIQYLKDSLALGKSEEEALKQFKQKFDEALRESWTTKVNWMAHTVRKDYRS
PI3K-δ (p110δ/p85α), sequence (O00329 whole entry, species assumed): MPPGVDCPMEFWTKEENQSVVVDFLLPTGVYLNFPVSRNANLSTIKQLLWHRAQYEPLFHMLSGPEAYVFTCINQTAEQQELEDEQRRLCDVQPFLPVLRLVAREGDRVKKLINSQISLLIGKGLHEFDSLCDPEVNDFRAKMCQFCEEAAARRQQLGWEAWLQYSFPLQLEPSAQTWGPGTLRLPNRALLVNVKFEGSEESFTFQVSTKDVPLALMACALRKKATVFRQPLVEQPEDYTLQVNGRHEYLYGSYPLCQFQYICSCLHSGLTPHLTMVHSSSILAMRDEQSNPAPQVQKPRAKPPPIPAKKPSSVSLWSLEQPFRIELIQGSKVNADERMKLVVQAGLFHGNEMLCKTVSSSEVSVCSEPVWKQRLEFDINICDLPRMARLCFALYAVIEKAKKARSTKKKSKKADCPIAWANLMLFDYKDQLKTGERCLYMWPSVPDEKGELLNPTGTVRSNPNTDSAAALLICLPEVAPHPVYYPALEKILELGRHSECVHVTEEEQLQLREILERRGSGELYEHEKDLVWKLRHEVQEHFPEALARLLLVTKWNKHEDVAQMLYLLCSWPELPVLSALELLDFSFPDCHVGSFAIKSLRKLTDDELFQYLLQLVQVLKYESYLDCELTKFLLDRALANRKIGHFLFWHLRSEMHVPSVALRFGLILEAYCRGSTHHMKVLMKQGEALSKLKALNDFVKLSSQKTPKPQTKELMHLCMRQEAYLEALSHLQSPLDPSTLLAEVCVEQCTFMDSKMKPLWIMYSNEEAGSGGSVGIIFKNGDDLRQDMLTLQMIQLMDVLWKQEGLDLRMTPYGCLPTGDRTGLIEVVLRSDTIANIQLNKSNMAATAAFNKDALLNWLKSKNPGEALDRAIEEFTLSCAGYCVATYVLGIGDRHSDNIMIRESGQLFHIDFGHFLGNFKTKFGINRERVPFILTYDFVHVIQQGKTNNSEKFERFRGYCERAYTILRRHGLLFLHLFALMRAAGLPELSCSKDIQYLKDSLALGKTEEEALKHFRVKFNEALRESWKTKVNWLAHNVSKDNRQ
PI3K-δ (p110δ/p85α), sequence (P27986 whole entry partner, species assumed): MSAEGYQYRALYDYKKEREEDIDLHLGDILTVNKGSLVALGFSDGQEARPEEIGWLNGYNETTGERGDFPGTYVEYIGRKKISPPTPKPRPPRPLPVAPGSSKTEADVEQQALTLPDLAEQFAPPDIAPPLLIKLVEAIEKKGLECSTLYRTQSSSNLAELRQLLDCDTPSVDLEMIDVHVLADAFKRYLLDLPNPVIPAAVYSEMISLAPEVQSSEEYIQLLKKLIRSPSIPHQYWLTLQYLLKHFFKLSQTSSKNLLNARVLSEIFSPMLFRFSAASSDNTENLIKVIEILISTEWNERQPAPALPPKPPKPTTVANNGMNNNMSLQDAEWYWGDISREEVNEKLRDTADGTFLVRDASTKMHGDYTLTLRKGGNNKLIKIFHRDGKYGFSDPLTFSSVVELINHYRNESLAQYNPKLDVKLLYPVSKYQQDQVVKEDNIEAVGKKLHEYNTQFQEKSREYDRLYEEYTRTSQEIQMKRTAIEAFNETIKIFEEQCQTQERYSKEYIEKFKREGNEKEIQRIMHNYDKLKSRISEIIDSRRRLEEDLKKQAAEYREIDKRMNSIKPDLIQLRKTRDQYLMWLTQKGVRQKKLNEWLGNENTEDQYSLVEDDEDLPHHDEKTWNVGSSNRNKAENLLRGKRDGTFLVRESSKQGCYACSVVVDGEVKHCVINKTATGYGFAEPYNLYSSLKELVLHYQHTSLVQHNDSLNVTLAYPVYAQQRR

Compound | inhibition at 1 µM (PI3K-γ (p110γ); at 1 μM) [%] | inhibition at 1 µM (PI3K-β) [%] | IC50 (PI3K-δ (p110δ/p85α)) [nM] | further results
CCC(Nc1ncnc2[nH]cnc12)c1cc2ncc(Cl)n2nc1-c1ccccc1 (stereo not drawn) [Compound 14] | 22.5 |  |  | PI3K-β IH % (inhibition rate) (PI3K-β): 3.2%; inhibition at 1 µM (PI3K-δ (p110δ/p85α)): 51%
CCC(Nc1ncnc2[nH]cnc12)c1cc2ncc(Cl)n2nc1-c1ccccc1F (single isomer, unassigned) [Compound 26] | 8 |  |  | PI3K-β IH % (inhibition rate) (PI3K-β): −7.5%
C[C@H](Nc1ncnc(N)c1C#N)c1cc2ncc(Cl)n2nc1-c1ccc(F)c(F)c1 [Compound 63] |  | 48.1 | 6 | IC50 (PI3K-γ (p110γ)): 105 nM
C[C@@H](Nc1ncnc(N)c1C#N)c1cc2ncc(Cl)n2nc1-c1ccccn1 [Compound 7, (R)-4-amino-6-((1-(3-chloro-6-(pyridin-2-yl)imidazo[1,2-b]pyridazin-7-yl)ethyl)amino)pyrimidine-5-carbonitrile] | -2.3 | -2.7 |  | inhibition at 1 µM (PI3K-δ (p110δ/p85α)): 12.5%
C[C@H](Nc1ncnc(N)c1C#N)c1cc2ncc(Cl)n2nc1-c1cnn(C)c1 [Compound 72] |  |  | 4 | IC50 (PI3K-β): 89 nM; IC50 (PI3K-γ (p110γ)): 513 nM
CC(Nc1ncnc2[nH]cnc12)c1cc2ncc(Cl)n2nc1-c1ccccc1 (single isomer, unassigned) [Compound 11] |  | 55.7 | 3 | IC50 (PI3K-γ (p110γ)): 94 nM
CCC(Nc1ncnc(N)c1C#N)c1cc2ncc(Cl)n2nc1-c1ccccn1 (stereo not drawn) [Compound 28] | 18.8 | 11.1 |  | inhibition at 1 µM (PI3K-δ (p110δ/p85α)): 39.8%
C[C@H](Nc1ncnc(N)c1C#N)c1cc2ncc(Cl)n2nc1-c1ccccc1O [Compound 69, (S)-4-amino-6-((1-(3-chloro-6-(2-hydroxyphenyl)imidazo[1,2-b]pyridazin-7-yl)ethyl)amino)pyrimidine-5-carbonitrile] |  |  | 1 | 
Cc1noc(-c2c(N)ncnc2N[C@@H](C)c2cc3ncc(Cl)n3nc2-c2ccccc2)n1 [Compound 82, (S)—N^4-(1-(3-chloro-6-phenylimidazo[1,2-b]pyridazin-7-yl)ethyl)-5-(3-methyl-1,2,4-oxadiazol-5-yl)pyrimidine-4,6-diamine] |  | 55.2 | 13 | IC50 (PI3K-γ (p110γ)): 203 nM
Cc1cn2nc(-c3ccccc3)c([C@H](C)Nc3ncnc(N)c3C#N)cc2n1 [Compound 58] | 20.2 | 20.5 | 138 | 
C[C@H](Nc1ncnc(N)c1C#N)c1cc2ncc(Cl)n2nc1-c1ccc(Cl)c(F)c1 [Compound 64] |  | 44.1 | 48 | IC50 (PI3K-γ (p110γ)): > 333 nM
C[C@H](Nc1ncnc(N)c1C#N)c1cc2ncc(Cl)n2nc1-c1cccc(O)c1 [Compound 54] |  |  | 2 | IC50 (PI3K-β): 9 nM; IC50 (PI3K-γ (p110γ)): 226 nM
C[C@H](Nc1ncnc(N)c1C#N)c1cc2ncc(Cl)n2nc1-c1cccc(C(C)(C)O)c1 (single isomer, unassigned) [Compound 79, (chiral)-4-amino-6-((1-(3-chloro-6-(3-(2-hydroxypropan-2-yl)phenyl)imidazo[1,2-b]pyridazin-7-yl)ethyl)amino)pyrimidine-5-carbonitrile] |  |  |  | PI3K-β IH % (inhibition rate) (PI3K-β): 43.8%; PI3K-γ IH % (inhibition rate) (PI3K-γ (p110γ); at 1 μM): 56.2%
CC[C@H](Nc1ncnc2[nH]cnc12)c1cc2ncc(Cl)n2nc1-c1cccc(F)c1 [Compound 47] | 55.2 | 32.2 | 18 | 
CC(Nc1ncnc2[nH]cc(C#N)c12)c1cc2ncc(Cl)n2nc1-c1ccccc1 (single isomer, unassigned) [Compound 9] |  |  | 2 | IC50 (PI3K-β): 158 nM; IC50 (PI3K-γ (p110γ)): 46 nM
CNc1ncnc(N[C@@H](C)c2cc3ncc(Cl)n3nc2-c2ccccc2)c1C#N [Compound 33, (S)-4-((1-(3-chloro-6-phenylimidazo[1,2-b]pyridazin-7-yl)ethyl)amino)-6-(methylamino)pyrimidine-5-carbonitrile] | -6.9 | 2.2 | 288 | 
C[C@H](Nc1ncnc(N)c1C#N)c1cc2ncc(Cl)n2nc1-c1ccc(O)cc1 [Compound 49] |  |  | 1 | IC50 (PI3K-β): 1 nM; IC50 (PI3K-γ (p110γ)): 146 nM
C[C@H](Nc1ncnc(N)c1C#N)c1cc2ncc(Cl)n2nc1-c1ccsc1 [Compound 60] |  |  | 1 | IC50 (PI3K-β): 34 nM; IC50 (PI3K-γ (p110γ)): 48 nM
CC[C@@H](Nc1ncnc2[nH]cnc12)c1cc2ncc(Cl)n2nc1-c1cccc(F)c1 [Compound 44] | 36 | 18.8 | 283 | 
C[C@H](Nc1ncnc(N)c1C#N)c1cc2ncc(F)n2nc1-c1ccccc1 [Compound 78] |  | 50.1 |  | 
C[C@H](Nc1ncnc(N)c1C(=O)O)c1cc2ncc(Cl)n2nc1-c1ccccc1 [Compound 52, (S)-4-amino-6-((1-(3-chloro-6-phenylimidazo[1,2-b]pyridazin-7-yl)ethyl)amino)pyrimidine-5-carboxylic acid] |  | -6.3 | 80 | inhibition at 1 µM (PI3K-γ (p110γ)): -26.1%
Cc1nnc(-c2c(N)ncnc2N[C@@H](C)c2cc3ncc(Cl)n3nc2-c2ccccc2)o1 [Compound 81, (S)—N^4-(1-(3-chloro-6-phenylimidazo[1,2-b]pyridazin-7-yl)ethyl)-5-(5-methyl-1,3,4-oxadiazol-2-yl)pyrimidine-4,6-diamine] |  |  | 2 | IC50 (PI3K-γ (p110γ)): 98 nM
C[C@H](Nc1nc[n+]([O-])c(N)c1C#N)c1cc2ncc(Cl)n2nc1-c1ccccc1 [Compound 51, (S)-6-amino-4-((1-(3-chloro-6-phenylimidazo[1,2-b]pyridazin-7-yl)ethyl)amino)-5-cyanopyrimidine 1-oxide] |  | -15.5 |  | inhibition at 1 µM (PI3K-γ (p110γ)): 36.7%
CC[C@@H](Nc1ncnc(N)c1C#N)c1cc2ncc(Cl)n2nc1-c1cccc(F)c1 [Compound 43, (R)-4-amino-6-((1-(3-chloro-6-(3-fluorophenyl)imidazo[1,2-b]pyridazin-7-yl)propyl)amino)pyrimidine-5-carbonitrile] | 27.2 | 23.6 | 132 | 
C[C@@H](c1cc2ncc(Cl)n2nc1-c1ccccc1)N(C)c1ncnc(N)c1C#N [Compound 42, (S)-4-amino-6-((1-(3-chloro-6-phenylimidazo[1,2-b]pyridazin-7-yl)ethyl)(methyl)amino)pyrimidine-5-carbonitrile] | 18.2 | 7.4 | 339 | 
CC(Nc1ncnc(N)c1C#N)c1cc2nccn2nc1-c1ccccc1 (stereo not drawn) [Compound 1, 4-amino-6-((1-(6-phenylimidazo[1,2-b]pyridazin-7-yl)ethyl)amino)pyrimidine-5-carbonitrile] |  | 28.1 | 28 | inhibition at 1 µM (PI3K-γ (p110γ)): 16.1%
C[C@H](Nc1ncnc(N)c1C#N)c1cc2ncc(Cl)n2nc1-c1ccc2c(c1)OCCO2 [Compound 70] |  | 37.4 |  | 
C[C@H](Nc1ncnc(N)c1C#N)c1cc2ncc(Cl)n2nc1-c1ccccc1F [Compound 12] |  |  | 2 | IC50 (PI3K-β): 80 nM; IC50 (PI3K-γ (p110γ)): 550 nM

Further lines, with some results ahead:

inhibition at 1 µM (PI3K-γ (p110γ); at 1 μM) [%] | inhibition at 1 µM (PI3K-β) [%] | Compound | IC50 (PI3K-δ (p110δ/p85α)) [nM] | further results
31.7 | -7.1 | C[C@@H](Nc1ncnc(N)c1C#N)c1cc2ncc(Cl)n2nc1-c1ccc2scnc2c1 [Compound 75] |  | inhibition at 1 µM (PI3K-δ (p110δ/p85α)): 1%
1 | 9 | C[C@H](Nc1ncnc(N)c1C(=O)N(C)C)c1cc2ncc(Cl)n2nc1-c1ccccc1 [Compound 56] |  | inhibition at 1 µM (PI3K-δ (p110δ/p85α)): 21%
4.1 | -10.7 | CC[C@@H](Nc1ncnc(N)c1C#N)c1cc2ncc(Cl)n2nc1-c1ccccc1 [Compound 5, (R)-4-amino-6-((1-(3-chloro-6-phenylimidazo[1,2-b]pyridazin-7-yl)propyl)amino)pyrimidine-5-carbonitrile] |  | inhibition at 1 µM (PI3K-δ (p110δ/p85α)): 47.3%
-4.7 | 8.5 | C[C@H](Nc1nc(O)nc(N)c1C#N)c1cc2ncc(Cl)n2nc1-c1ccccc1 [Compound 55, (S)-4-amino-6-((1-(3-chloro-6-phenylimidazo[1,2-b]pyridazin-7-yl)ethyl)amino)-2-hydroxypyrimidine-5-carbonitrile] |  | inhibition at 1 µM (PI3K-δ (p110δ/p85α)): 60.3%
-19.3 | 3.7 | C[C@H](Nc1nc(N)ncc1C#N)c1cc2ncc(Cl)n2nc1-c1ccccc1 [Compound 34] |  | inhibition at 1 µM (PI3K-δ (p110δ/p85α)): 8.3%
28.1 | -4.4 | COc1ccc(-c2c(N)ncnc2N[C@@H](C)c2cc3ncc(Cl)n3nc2-c2ccccc2)cn1 [Compound 39] | 73 | 
32.6 | 35.2 | C[C@H](Nc1ncnc(N)c1C#N)c1cc2ncc(Cl)n2nc1-c1ccc2ccccc2c1 [Compound 71] | 129 | 
-14.3 | 54.9 | C[C@H](Nc1ncnc(N)c1C#N)c1cc2ncc(Cl)n2nc1-c1ccc2ccn(C)c2c1 [Compound 76] |  | inhibition at 1 µM (PI3K-δ (p110δ/p85α)): 48.9%
54.3 | -2.2 | C[C@H](Nc1ncnc(N)c1-c1ccc(O)c(F)c1)c1cc2ncc(Cl)n2nc1-c1ccccc1 [Compound 38] | 66 | 
30.3 | 6.3 | C[C@H](Nc1ncnc(N)c1-c1cnn(C)c1)c1cc2ncc(Cl)n2nc1-c1ccccc1 [Compound 57] | 62 | 
27.5 | -0.4 | C[C@H](Nc1ncnc(N)c1-c1cccc(F)c1)c1cc2ncc(Cl)n2nc1-c1ccccc1 [Compound 37, (S)—N^4-(1-(3-chloro-6-phenylimidazo[1,2-b]pyridazin-7-yl)ethyl)-5-(3-fluorophenyl)pyrimidine-4,6-diamine] | 288 | 
6.9 |  | C[C@@H](Nc1ncnc(N)c1C#N)c1cc2ncc(Cl)n2nc1-c1ccccc1 [Compound 3, (R)-4-amino-6-((1-(3-chloro-6-phenylimidazo[1,2-b]pyridazin-7-yl)ethyl)amino)pyrimidine-5-carbonitrile] |  | 
